This is an account of results in patent publication US10280139B2, “Cytotoxic peptides and conjugates thereof” (priority 2014, dated 2019).

Holding throughout (assay): In vitro cell killing assay of compounds of Formula (I), Cell-Titer-Glo
Common to all, as to assay type: cell-based

One test relates to CMK11-5 cells. Particulars: Homo sapiens, CMK-11-5, 120 h; free compound, five days incubation. The protocol:
(§1) For evaluation of the cell killing potency of the compounds of Formula (I) in vitro, cell proliferation assays were performed in parallel with 8 cell lines: MDA-MB231 clone 16, clone 40, JimT1, HCC1954, NCl-H526, KU812, CMK11-5 cells and Jurkat cells. […] The cell proliferation assays were conducted with Cell-Titer-Glo™ (Promega) five days after cells were incubated with various concentrations of the compound (Riss et al., (2004) Assay Drug Dev Technol. 2:51-62).

Another test concerns HCC1954. Particulars: Homo sapiens, HCC1954, 120 h; free compound, five days incubation. The protocol:
as §1

The next test has as its system JimT1. The conditions noted are these: Homo sapiens, JIMT-1, 120 h; free compound, five days incubation. On the procedure:
as §1

A further test concerns Jurkat cells. Particulars: Homo sapiens, 120 h, free compound, five days incubation. On the procedure: as §1
Another test deals with KU812. Particulars: Homo sapiens, KU812, 120 h; free compound, five days incubation. On the procedure:
as §1

Another test has as its system MDA-MB231 clone 16. The conditions noted are these: Homo sapiens, MDA-MB-231, 120 h; free compound, five days incubation. On the procedure:
as §1

The next test relates to MDA-MB231 clone 40. The conditions noted are these: Homo sapiens, MDA-MB-231, 120 h; free compound, five days incubation. On the procedure:
as §1

In the next test the test system is NCI-H526. The conditions noted are these: Homo sapiens, NCI-H526, 120 h; free compound, five days incubation. On the procedure: as §1

Regarding `CC[C@H](C)[C@@H]([C@@H](CC(=O)N1CCC[C@H]1[C@H](OC)[C@@H](C)C(=O)N[C@@H](Cc1ccccc1)C(=O)NS(=O)(=O)CCCN=[N+]=[N-])OC)N(C)C(=O)[C@@H](N=C(N(C)C)N(C)C)C(C)C` [FP-3, (S)-2-((bis(dimethylamino)methylene)amino)-1-(((3R,4S,5S)-1-((S)-2-((1R,2R)-3-(((S)-N-1-(3-azidopropylsulfonamido)-1-oxo-3-phenylpropan-2-yl)amino)-1-methoxy-2-methyl-3-oxopropyl)pyrrolidin-1-yl)-3-methoxy-5-methyl-1-oxoheptan-4-yl)(methyl)amino)-3-methyl-1-oxobutane], the IC50 (commonly the concentration at which inhibition is half-maximal) with CMK11-5 cells was 14.7 nM; in the test on HCC1954 it was 10.8 nM; with JimT1 it was 42.1 nM; in the test on Jurkat cells, 3.01 nM; with KU812, 6.78 nM; in the test on MDA-MB231 clone 16, 12.7 nM. The results for the IC50 in the test with MDA-MB231 clone 40 and in the test with NCI-H526 were 23.9 nM and 22 nM, respectively.
In the case of `CC[C@H](C)[C@@H]([C@@H](CC(=O)N1CCC[C@H]1[C@H](OC)[C@@H](C)C(=O)N[C@@H](Cc1ccccc1)C(=O)OC)OC)N(C)C(=O)[C@@H](NC(=O)N(C(C)C)C(C)C)C(C)C` [FP-5, (S)-methyl-2-((2R,3R)-3-((S)-1-((3R,4S,5S)-4-((S)-2-(3,3-diisopropylureido)-N,3-dimethylbutanamido)-3-methoxy-5-methylheptanoyl)pyrrolidin-2-yl)-3-methoxy-2-methylpropanamido)-3-phenylpropanoate], the IC50 with CMK11-5 cells is 74.8 nM; in the test on HCC1954, 47 nM; in the test with JimT1, 44.7 nM; with Jurkat cells, 49.9 nM; in the test on KU812, 106 nM; in the test on MDA-MB231 clone 16, 83.5 nM. The IC50 came to 139 nM in the test with MDA-MB231 clone 40 and 204 nM in the test with NCI-H526.
Turning to `CC[C@H](C)[C@@H]([C@@H](CC(=O)N1CCC[C@H]1[C@H](OC)[C@@H](C)C(=O)N[C@@H](Cc1ccccc1)C(=O)O)OC)N(C)C(=O)[C@@H](/N=C(\N(C)C)N(C)CCN(C)C(=O)CCCCCN1C(=O)C=CC1=O)C(C)C` [NL-9, (S)-2-((2R,3R)-3-((S)-1-((3R,4S,7S,E)-4-((S)-sec-butyl)-9-(dimethylamino)-19-(2,5-dioxo-2,5-dihydro-1H-pyrrol-1-yl)-7-isopropyl-3-methoxy-5,10,13-trimethyl-6,14-dioxo-5,8,10,13-tetraazanonadec-8-en-1-oyl)pyrrolidin-2-yl)-3-methoxy-2-methylpropanamido)-3-phenylpropanoic acid], the IC50 in the test on CMK11-5 cells is 10.4 nM; in the test on HCC1954 it was 2.3 nM; with JimT1, 14.2 nM; in the test on Jurkat cells, 6.1 nM; with KU812, 8.4 nM; in the test on MDA-MB231 clone 16, 8.1 nM. Also, the results for the IC50 with MDA-MB231 clone 40 and in the test on NCI-H526 were 11.7 nM and 29.5 nM, respectively.
